The subject of one test is Glyc. max. Put plainly: tolerance by various oil crops in the greenhouse (Table 8), % damage. The note with it: varieties: Dare, Lee 68, SRF 450. The class given is in vivo, Glycine max. An excerpt: (§1) The vessels employed were plastic flowerpots having a volume of 300 cm^3; the substrate was a sandy loam containing about 1.5% humus. The seeds of the test plants (see Table 1) were sown shallow, and separated according to species. In the case of Cyperus esculentus, pregerminated tubers were planted. In the preemergence treatment, the active ingredients were then immediately applied to the surface of the soil. They were suspended or emulsified in water as the vehicle, and sprayed through atomizing nozzles. After the agents had been applied, the vessels were lightly sprinkler-irrigated to set germination and growth going, and to activate the chemical agents. The vessels were then covered with transparent plastic hoods until the plants had taken root. This cover ensured uniform germination of the test plants (to the extent that this was not impaired by the chemicals), and prevented readily volatile substances from evaporating.
(§2) For postemergence treatment, the plants were first grown to a height of from 3 to 10 cm, depending on their habit, before treated. Hoods were not placed on the pots. The experiments were set up in the greenhouse, hotter areas (25° to 40° C.) being preferred for heat-loving species, and 15° to 30° C. for plants from moderate climates. The experiments were carried out for from 4 to 6 weeks. During this period the plants were tended and their reaction to the various treatments was assessed. The following tables contain the substances investigated, the application rates in kg/ha of active ingredient, and the test plant species. Assessments were made on a 0 to 100 scale, 0 denoting no damage or normal emergence, and 100 denoting no emergence or complete destruction of at least the visible plant parts.

The test system of the next test is Arach. hypog. The description is as above. The class given is in vivo, Arachis hypogaea.
Description: as §1, §2

In the next test the test system is Brassica napus. Described as above. The class given is in vivo.
Description: as §1, §2

Another test has as its system Carth. tinct. The test is described as above. The class given is in vivo, Carthamus tincotius.
Description: as §1
For postemergence treatment, the plants were first grown to a height of from 3 to 10 cm, depending on their habit, before treated. Hoods were not placed on the pots. The experiments were set up in the greenhouse, hotter areas (25° to 40° C.) being preferred for heat-loving species, and 15° to 30° C. for plants from moderate climates. […] During this period the plants were tended and their reaction to the various treatments was assessed. […]

Another test concerns Solan. nigrum. Put plainly: herbicidal action in the greenhouse (Table 8), % damage. The class given is in vivo.
Description: as §1, §2

Another test concerns Amar. retro. Described as above. Format: in vivo.
Description: as §1, §2

The test system of a further test is Seta. spp. The test is described as above. Format: in vivo.
Description: as §1, §2

Regarding `Cc1cccc(C)c1N(Cn1cncn1)C(=O)CCl` [Compound 127], the “% damage” value with Glyc. max (0,5 kg/ha) is recorded as 0%; in the test on Glyc. max (1,0 kg/ha), 0%; with Glyc. max (2,0 kg/ha), 0%; in the test with Arach. hypog. (0,5 kg/ha), 0%; in the test with Arach. hypog. (1,0 kg/ha), 0%; in the test on Arach. hypog. (2,0 kg/ha) it was 10%. Also, the “% damage” value is 0% with Brassica napus (0,5 kg/ha); 0% with Brassica napus (1,0 kg/ha); 0% in the test with Brassica napus (2,0 kg/ha); 0% with Carth. tinct. (0,5 kg/ha); 0% in the test on Carth. tinct. (1,0 kg/ha); 70% with Solan. nigrum. (0,5 kg/ha). Besides, the “% damage” value was 90% with Solan. nigrum. (1,0 kg/ha); 100% in the test on Solan. nigrum. (2,0 kg/ha); 82% with Amar. retro. (0,5 kg/ha); 95% in the test with Amar. retro. (1,0 kg/ha); 100% in the test on Amar. retro. (2,0 kg/ha); 95% with Seta. spp. (0,5 kg/ha). The “% damage” value with Seta. spp. (1,0 kg/ha) and with Seta. spp. (2,0 kg/ha) was 100% throughout.

The values are drawn from US4593104A, “2-halo-N-(azole-1-yl-methyl)-substituted acetanilides” (BASF Aktiengesellschaft, priority 1976, dated 1986).
